What all share (format): biochemical
Test [1] has as its target T1, Aβ (1-42) (Homo sapiens, UniProt P05067).
T1 construct: Required Aβ (1-42)(California Peptide) was dried from its hexafluoroisopropanol (HFIP) stock solution; purchased California Peptide
Nature of the test: BATYM assay, Aβ (1-42) aggregation, Thioflavin T fluorescence. The procedure:
Required Aβ (1-42)(California Peptide) was dried from its hexafluoroisopropanol (HFIP) stock solution. The Aβ (1-42) was dissolved in dimethylsulfoxide (DMSO) and then mixed with phosphate buffered saline (PBS) (pH 7.4). The mixed Aβ (1-42) solution was filtered through a […] Omnipore membrane syringe filter (Millipore, Bedford, MA). The compound to be tested in DMSO (50 times concentrate) was put into each well (0.5 µL/well) of a 96-well plate. The Aβ (1-42) solution was added into each well (24.5 µL/well). The plate was centrifuged at 1,000 g for 5 minutes and incubated at 37°C for 1 day (Aβ 1-42; final concentration 100 µM).
After incubation Thioflavin T (ThT) (30 µM) solution in glycine-NaOH buffer (pH 8.5, 50 mM) was added into each well (250 µL/well), fluorescence was measured (ex. 440/20 nm; em 485/20 nm) using a fluorescence plate reader. The inhibitory activity was calculated as the reduction of fluorescence with the following formula: Inhibition (%) = {(F(Aβ)-F(Aβ+compound)}/{F(Aβ)-F (solvent+compound)} × 100 [formula]
The IC50s (concentration of test compound required to cause a 50% inhibition of aggregation) were calculated by a curve fitting program using the following equation. The data were obtained from two different experiments in triplicate. Inhibition (x) = 100-100/{1 + (x/IC50)^n }, [formula] x = concentration of tested compound (M), IC50 = (M), n = Hill coefficient.

Test [2] concerns the target T2, Aβ(1-40) (Homo sapiens, UniProt P05067). Kind of test: BASSR (Beta-Amyloid Self-Seeding Radioassay), inhibition of self-seeded amyloid fibril growth. The arrangement: Soluble Aβ(1-40) peptide (Bachem, Torrance, CA); purchased Bachem, Torrance, CA. The conditions noted are these: 30 µM soluble Aβ (1-40) + 125I-labeled Aβ(1-40), 37°C, 3 to 5 hours, several values in a cell = repeat values, letter in parentheses = lot of compound (no letter = Lot P), (ppt), (v-shape) flags; for pIC50: read-out: BASSR IC50. The method, then: BASSR (Beta-Amyloid Self-Seeding Radioassay)
(§1) An assay for inhibitors of self-seeded amyloid fibril growth
Assay Buffer - 50 mM sodium phosphate, pH 7.5, 100 mM NaCl, 0.02% NaN3, 1 M urea (filter and store at 4°C)
Soluble Aβ(1-40) peptide (Bachem, Torrance, CA) - 2.2 mg/mL in deionized H2O (stored in aliquots at -20°C, keep on ice when thawed) will self-seed after 1 week storage. Typically, the solution should be stored until no lag phase is seen in the assay.
^125I-labeled Aβ (1-40) - 150K-350K cpm/µL in 100% acetonitrile -0.1% trifluoroacetic acid (TFA) -1% β-mercaptoethanol (aliquots stored at -20°C) ^125I-labeled Aβ(1-40) can be made in accordance with the procedure set forth by H. LeVine, III in Neurobiol. Aging, 16:755 (1995), which is hereby incorporated by reference, or this reagent may be purchased from Amersham, Arlington Heights, Illinois.
Final assay conditions: 30 µM soluble Aβ (1-40) in deionized water in assay buffer + 20-50K cpm ^125I-labeled Aβ(1-40) per assay. Compound to be tested is dissolved in dimethylsulfoxide (DMSO), typically 5-50 mM stock, such that the final concentration of DMSO is <1% v/v in the assay.
Assay: Reaction mixture for 50 assays (on ice) is comprised of 0.1-0.2 µL of ^125I-labeled A^125I-labeled Aβ(1-40) + 1 µL of soluble Aβ (1-40) + 13.5 µL assay buffer per assay. The following are the amounts of the components of the reaction mixture sufficient for 50 assay wells. 5-10 µL ^125I-labeled Aβ (1-40) dried down 675 µL assay buffer 50 µL soluble Aβ (1-40)
• 1) Prepare reaction mixture above by mixing components and storing on ice. • 2) Pipet 14.5 µL of reaction mixture into each of 50 wells on a polypropylene U-bottom 96-well microtiter plate on ice (Costar 3794). • 3) Add 1.7 µL, of diluted compound to be tested to each well in a column of eight, including solvent control. Serial 3-fold dilutions from 1 mM (100 µM final) in assay buffer -urea = 7 dilutions + zero. Each 96-well plate can therefore accommodate 11 samples + 1 Congo Red control (0.039-5 µM final in 2-fold steps). • 4) Seal the plate with aluminum film (Beckman 538619) and incubate for 10 minutes on ice. • 5) Raise the temperature to 37°C and incubate for 3 to 5 hours (depending on the lot of the peptide). • 6) Remove the aluminum film and add 200 µL/well of ice cold assay buffer with urea, collecting the radiolabeled fibrils by vacuum filtration through 0.2 µm pore size GVWP filters in 96-well plates (Millipore MAGV N22, Bedford, MA). Determine the radioactivity of the filters using standard methods well-known to those skilled in the art.

In test [3] the target is T3, Aβ (1-40) peptide (Homo sapiens, UniProt P05067).
T3 construct: 10 µL 0.5 mg/mL Aβ (1-40) peptide in 20% HFIP
Nature of the test: BAPA (Beta-Amyloid Peptide Aggregation, pH 6.0), filtration endpoint assay. The procedure: BAPA (Beta-Amyloid Peptide Aggregation
This assay is used to provide a measure of inhibition by a compound against the aggregation behavior of the beta amyloid peptide.
The purpose of this assay is to provide a higher volume method of assaying the amount of beta amyloid aggregation using an endpoint assay based on filtration. In this assay, hexafluoroisopropanol (HFIP) is used to break down the initial amyloid peptide to a monomer state and use a concentration of 33 µM which is high enough so that aggregation will occur at pH 6.0 in several hours.
β-Amyloid Peptide Aggregation. pH 6 0 (BAPA)
In a 96-well plate (Costar 3794), we add 25 µL 50 mM Phosphate Buffer, pH 6.0, 10 µL 0.5 mg/mL Aβ (1-40) peptide in 20% HFIP + 0.1 µL/assay radioiodinated ^125I Aβ (1-40) [^125I Aβ(1-40)], and 1 µL of the compound to be tested starting at 50 mM with a concentration of DMSO <1%. Then, we incubate for 2 to 4 hours at room temperature. We stop the reaction with 200 µL of 50 mM phosphate buffer, pH 6.0, and filter it through a 0.2 µm 96-well filter plate (Millipore MAGU N22) We wash the filter plate with 100 µL of the same phosphate buffer. Aggregation was detected on a Microbeta counter after impregnating the filters with Meltilex (1450-441) and is corrected for background

For test [4], the target named is T2, Aβ(1-40). Kind of test: BASST (Beta-Amyloid Self-seeding, ThioflavinT), inhibition of self-seeded amyloid fibril growth. The conditions noted are these: 30 µM soluble Aβ (1-40), 37°C, 3 to 5 hours, thioflavin T fluorescence, letter in parentheses = lot of compound (no letter = Lot P); for pIC50: read-out: BASST IC50; for IC50: read-out: BASST IC50 (converted). The arrangement: 30 µM soluble Aβ (1-40) in deionized water in assay buffer. The method, then:
BASST (Beta-Amyloid Self-seeding, ThioflavinT)
as §1
Assay Buffer - 50 mM sodium phosphate, pH 7.5, 100 mM NaCl, 0.02% NaN3, 1 M urea (filter and store at 4°C).
Soluble Aβ (1-40) - 2.2 mg/mL in deionized H2O (store in aliquots at -20°C, keep on ice when thawed) will self-seed after 1 week storage. Typically, the solution should be stored until no lag phase is seen in the assay.
Final assay conditions: 30 µM soluble Aβ (1-40) in deionized water in assay buffer. Compound to be tested is dissolved in DMSO, typically 5-50 mM stock, such that the final concentration of DMSO is <1% v/v in the assay.
Assay: Reaction mixture for 50 assays (on ice) comprised of 1 µL of soluble Aβ (1-40) + 13.5 µL assay buffer per assay. The following are the amounts of the components of the reaction mixture that result in each of the 50 assay wells. 50 µL soluble Aβ (1-40) 675 µL assay buffer
• 1) Prepare the reaction mix above by mixing the components and storing on ice. • 2) Pipet 14.5 µL of reaction mixture into each of 50 wells of a polystyrene U-bottom 96-well microtiter plate (Coming 25881-96) on ice. • 3) Add 1.7 µL of diluted compound to be tested to each well in a column of eight, including solvent control. Serial 3-fold dilutions from 1 mM (100 µM final) in assay buffer -urea = 7 dilutions + zero. Each 96-well plate can therefore accommodate 11 samples + 1 Congo Red control (0.039-5 µM final in 2-fold steps). • 4) Seal the plate with aluminum film and incubate for 10 minutes on ice. • 5) Raise the temperature to 37°C and incubate for 3 to 5 hours (depends on the lot of the peptide). • 6) Remove the aluminum film and add 250 µL/well of 5 µM thioflavin T (ThT) [T-3516, Sigma-Aldrich] in 50 mM glycine-NaOH, pH 8.5. Read fluorescence on a plate reader (ex = 440 nm/20 nm; em = 485 nm/20 nm) within 5 minutes.

[5] abbreviates: read-out: BATYM IC50, Aβ 1-42 final concentration 100 µM, 37°C, 1 day, letter in parentheses = lot of compound (no letter = Lot P).
Where [6] appears, read: read-out: BAPA IC50; Aβ (1-40) 33 µM, pH 6.0, 2 to 4 hours at room temperature; letter in parentheses = lot of compound (no letter = Lot P).
The mark [7] stands for this setting: Aβ 1-42 final concentration 100 µM, 37°C, 1 day, letter in parentheses = lot of compound (no letter = Lot P), read-out: BATYM IC50.
[8] abbreviates: Aβ (1-40) 33 µM, pH 6.0, 2 to 4 hours at room temperature; letter in parentheses = lot of compound (no letter = Lot P); read-out: BAPA IC50.

pIC50: −log10 of the molar value. Several values for one entry are separate records, joined by “and”; a condition that tells them apart may be missing. Identical values can stand only once. Like-named read-outs stand apart in the source and are kept apart here. Where only a bound is given, the exact number is not on record here.

The IC50 is the point on the concentration scale where inhibition reaches its midpoint.

T1 sequence (P05067 672-713): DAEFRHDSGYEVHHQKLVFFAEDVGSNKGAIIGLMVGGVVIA
T2 sequence (P05067 672-711): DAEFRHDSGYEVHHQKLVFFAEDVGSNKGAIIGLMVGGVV
T3 sequence (P05067 672-711): as above

As for `O=C(O)c1ccccc1Nc1ccc2c(c1)CN(c1ccccc1)C2` [Example 13, 2-(2-Phenyl-2,3-dihydro-1H-isoindol-5-ylamino)-benzoic acid], the pIC50 in test [1] (setting [5]) was 4.04 and 4.22 and < 4.00 and 4.10 and 4.08; in test [2], < 4.00 and 4.28 and 4.22.
Regarding `O=C(O)c1cc([N+](=O)[O-])ccc1Nc1ccc2c(c1)CN(c1cccc(Cl)c1)C2` [Example 11, 2-[2-(3-Chloro-phenyl)-2,3-dihydro-1H-isoindol-5-ylamino]-5-nitro-benzoic acid], the pIC50 is 4.90 in test [1] (setting [5]); less than 4.00 in test [3] (setting [6]); 6.10 and 6.00 in test [4].
For the compound `COc1ccc(N2Cc3ccc(Nc4ccccc4C(=O)O)cc3C2)c(OC)c1OC` [Example 1, 2-[2-(2,3,4-Trimethoxy-phenyl)-2,3-dihydro-1H-isoindol-5-ylamino]-benzoic acid], the pIC50 was 4.95 and 4.33 and 4.22 in test [1] (setting [7]); 4.14 in test [3] (setting [8]). Moreover, the IC50 in test [4] was 2 µM and 1.6 µM and 3 µM (2×) and 15 µM (2×).
On to `O=C(O)c1cccnc1Nc1ccc2c(c1)CN(c1ccc(Cl)c(Cl)c1)C2` [Example 24, 2-[2-(3,4-Dichloro-phenyl)-2,3-dihydro-1H-isoindol-5-ylamino]-nicotinic acid], for which the pIC50 is 6.52 in test [4] and 4.74 in test [2].
On to “4-Methoxy-5-nitro-2-[2-(3,4,5-trimethoxyphenyl)-2,3-dihydro-1H-isoindol-5-ylamino]benzoic acid [Example 3]”, for which the pIC50 in test [1] (setting [7]) was 4.76; in test [3] (setting [8]), 4.19. The IC50 in test [4] is 3 µM and 2.1 µM.
Consider `O=C(O)c1cc([N+](=O)[O-])ccc1Nc1ccc2c(c1)CN(c1ccc(Cl)c(Cl)c1)C2` [Example 5, 2-[2-(3,4-Dichlorophenyl)-2,3-dihydro-1H-isoindol-5-ylamino]-5-nitro-benzoic acid], for which the pIC50 in test [1] (setting [7]) is 4.94. Besides, the IC50 in test [4] was 3 µM; in test [2] (read-out: BASSR IC50 (converted)), 5 µM and 4.1 µM and 3 µM.
In the case of `O=C(O)c1cc([N+](=O)[O-])ccc1Nc1ccc2c(c1)CN(c1cccc(Cl)c1)C2` [Example 14, 2-[2-(3-Chloro-phenyl)-2,3-dihydro-1H-isoindol-5-ylamino]-5-nitro-benzoic acid], the pIC50 was 4.90 in test [1] (setting [5]); less than 4.00 in test [3] (setting [6]); 6.10 and 6.00 in test [4].

Values taken from patent publication EP1192131B1, “METHOD OF INHIBITING AMYLOID PROTEIN AGGREGATION AND IMAGING AMYLOID DEPOSITS USING ISOINDOLINE DERIVATIVES” (Warner-Lambert Company LLC, priority 1999, dated 2000).
